1 compound from the NIST ThermoML archive (doi:10.1021/je800920d) can be followed below.

For series [1] the following is noted: Crystal; DTA.
A short description of series [2]: Molar enthalpy of transition or fusion. As to conditions: Crystal; DSC.

Numbers after ± are expanded uncertainties.

On to `COc1ccc2cc([C@H](C)C(=O)O)ccc2c1` [(S)-(+)-naproxen], for which the Normal melting temperature in series [1] turned out to be 154.6 ± 0.5 °C. In addition, the “Molar enthalpy of transition or fusion” value in series [2] turned out to be 7.5 ± 0.215 kcal/mol.
